Laboratory results published in publication PMC9387934, “Randomized single oral dose phase 1 study of safety, tolerability, and pharmacokinetics of Iminosugar UV-4 Hydrochloride (UV-4B) in healthy subjects” (PLoS Neglected Tropical Diseases, 2022).
Values joined by “and” are separate entries in the source; they are usually repeats but may differ in a detail not shown here. Identical values can stand only once.

Test: Phase 1a single ascending dose study: UV-4 plasma concentrations and PK parameters (LC-MS/MS, noncompartmental)
Format: in vivo
Conditions: for CONCENTRATION UV4: human plasma
Description: UV-4 ((2R,3R,4R,5S)-2-(hydroxymethyl)-1-(9-methoxynonyl)piperidine-3,4,5-triol, also called N-(9’-methoxynonyl)-1-deoxynojirimycin, or MON-DNJ) hydrochloride was evaluated in a first-in-human, randomized, single-center, double-blind, placebo-controlled, parallel group, single ascending dose Phase 1a clinical trial in healthy subjects (Figs 1 and 2, ClinicalTrials.gov Identifier NCT02061358 https://clinicaltrials.gov/ct2/show/NCT02061358). The primary objective was to determine the safety and tolerability of a single-ascending oral dose of UV-4 hydrochloride (Fig 3). […] The secondary objective was to determine PK parameters describing absorption and elimination of UV-4 following a single oral dose of UV-4 hydrochloride. Eight cohorts of eight subjects each were enrolled and completed the study. In each cohort, six subjects received UV-4 as the hydrochloride; two received placebo. Subjects were screened against study eligibility criteria up to four weeks (Days -28 to -2) before admission to the clinic (Day -1). Dosing was performed on an inpatient basis. Subjects remained in clinic for 48 hours post-dosing for PK sample collection and safety assessments and were discharged from the clinic on Day 3. Subjects returned to the clinic on Day 4 for additional safety assessments, then again on Day 9 ± 1 for a final follow-up visit.
Eligible subjects were healthy males and females, age 18–45 years, with a body mass index between 18 and 30 kg/m^2 inclusive and a minimum body weight of 60 kg. Subjects were considered healthy based on medical history, physical exam, vital signs, 12-lead electrocardiogram (ECG), clinical laboratory tests (hematology, blood chemistry, urinalysis), viral serology, and drug and alcohol screening. Male and female subjects of childbearing potential were required to use adequate contraception over the course of the clinical trial. […] Only subjects who met all inclusion and none of the exclusion criteria prior to administration of the investigational product were enrolled into the study (no exemptions were granted). A total of 64 subjects were enrolled (eight cohorts of eight subjects each). In each of the eight cohorts, six subjects were randomized to receive a single dose of UV-4 (3 to 1000 mg, depending on cohort) as the hydrochloride salt, and two subjects to receive placebo. Cohort size of six active subjects was based on analysis that increasing cohort size above six in a first-in-human study gains little in the ability to observe a drug induced event, and results in observing more events that are not related to study drug. Two of the eight subjects in each cohort (sentinel subjects; one active and one placebo) received their doses at least 48 h before the remaining subjects in each cohort.
On each day of use, bulk drug substance (UV-4B for solubilization, SAI Life Sciences Ltd. Telangana, India) was removed from a single-use container, weighed at the study center, and solubilized in 20 mL sterile water for injection (SWFI) (Hospira Inc. Illinois, United States of America). Weight of solid drug substance was converted to dose of UV-4 by applying purity and salt correction factor per pharmacy manual when preparing the dosing solution. UV-4B solution was administered orally with 10 mL of taste-masking agent, OraSweet-SF (Paddock Laboratories LLC, Minneapolis, United States of America) in a total volume of 30 mL, to assist in maintaining study blinding. Placebo was SWFI (20 mL) plus OraSweet-SF (10 mL). Concentrations and doses were calculated and expressed as the active free base form, UV-4. This methodology is consistent with USP<1121>, which recommends that the strength of a drug product or preparation is expressed in terms of the active moiety. Following consumption of active or placebo solution, the dosing container was rinsed with 50 mL of tap water also consumed by subjects. […]

COCCCCCCCCCN1C[C@H](O)[C@@H](O)[C@H](O)[C@H]1CO [UV4]
CONCENTRATION UV4 in human plasma (Cohort 7, nominal day 1, nominal hour 0, individual subjects): <LLOQ (0.500) ng/mL
CONCENTRATION UV4 in human plasma (Cohort 7, nominal day 1, nominal hour 0, subject with all samples <LLOQ): <LLOQ (0.500) ng/mL
CONCENTRATION UV4 in human plasma (Cohort 7, nominal day 1, nominal hour 0.5, individual subjects): 8420 ng/mL and 5960 ng/mL and 5510 ng/mL and 13200 ng/mL and 9650 ng/mL
CONCENTRATION UV4 in human plasma (Cohort 7, nominal day 1, nominal hour 0.5, subject with all samples <LLOQ): <LLOQ (0.500) ng/mL
CONCENTRATION UV4 in human plasma (Cohort 7, nominal day 1, nominal hour 1, individual subjects): 8390 ng/mL and 11600 ng/mL and 8700 ng/mL and 11700 ng/mL and 8870 ng/mL
CONCENTRATION UV4 in human plasma (Cohort 7, nominal day 1, nominal hour 1, subject with all samples <LLOQ): <LLOQ (0.500) ng/mL
CONCENTRATION UV4 in human plasma (Cohort 7, nominal day 1, nominal hour 1.5, individual subjects): 7250 ng/mL and 7490 ng/mL and 5760 ng/mL and 7510 ng/mL and 6190 ng/mL
CONCENTRATION UV4 in human plasma (Cohort 7, nominal day 1, nominal hour 1.5, subject with all samples <LLOQ): <LLOQ (0.500) ng/mL
CONCENTRATION UV4 in human plasma (Cohort 7, nominal day 1, nominal hour 2, individual subjects): 5560 ng/mL and 6260 ng/mL and 4660 ng/mL and 6160 ng/mL and 5490 ng/mL
CONCENTRATION UV4 in human plasma (Cohort 7, nominal day 1, nominal hour 2, subject with all samples <LLOQ): <LLOQ (0.500) ng/mL
CONCENTRATION UV4 in human plasma (Cohort 7, nominal day 1, nominal hour 2.5, individual subjects): 4270 ng/mL and 6030 ng/mL and 3950 ng/mL and 4710 ng/mL and 4800 ng/mL
CONCENTRATION UV4 in human plasma (Cohort 7, nominal day 1, nominal hour 2.5, subject with all samples <LLOQ): <LLOQ (0.500) ng/mL
CONCENTRATION UV4 in human plasma (Cohort 7, nominal day 1, nominal hour 3, individual subjects): 3650 ng/mL and 5660 ng/mL and 3610 ng/mL and 4080 ng/mL and 4540 ng/mL
CONCENTRATION UV4 in human plasma (Cohort 7, nominal day 1, nominal hour 3, subject with all samples <LLOQ): <LLOQ (0.500) ng/mL
CONCENTRATION UV4 in human plasma (Cohort 7, nominal day 1, nominal hour 4, individual subjects): 2230 ng/mL and 3760 ng/mL and 2630 ng/mL and 3120 ng/mL and 3370 ng/mL
CONCENTRATION UV4 in human plasma (Cohort 7, nominal day 1, nominal hour 4, subject with all samples <LLOQ): <LLOQ (0.500) ng/mL
CONCENTRATION UV4 in human plasma (Cohort 7, nominal day 1, nominal hour 6, individual subjects): 1120 ng/mL and 1930 ng/mL and 1770 ng/mL and 1610 ng/mL and 1730 ng/mL
CONCENTRATION UV4 in human plasma (Cohort 7, nominal day 1, nominal hour 6, subject with all samples <LLOQ): <LLOQ (0.500) ng/mL
CONCENTRATION UV4 in human plasma (Cohort 7, nominal day 1, nominal hour 9, individual subjects): 429 ng/mL and 642 ng/mL and 790 ng/mL and 588 ng/mL and 656 ng/mL
CONCENTRATION UV4 in human plasma (Cohort 7, nominal day 1, nominal hour 9, subject with all samples <LLOQ): <LLOQ (0.500) ng/mL
CONCENTRATION UV4 in human plasma (Cohort 7, nominal day 1, nominal hour 12, individual subjects): 184 ng/mL and 254 ng/mL and 352 ng/mL and 266 ng/mL and 301 ng/mL
CONCENTRATION UV4 in human plasma (Cohort 7, nominal day 1, nominal hour 12, subject with all samples <LLOQ): <LLOQ (0.500) ng/mL
CONCENTRATION UV4 in human plasma (Cohort 7, nominal day 1, nominal hour 18, individual subjects): 47.6 ng/mL and 69.6 ng/mL and 82.9 ng/mL and 80.3 ng/mL and 78.0 ng/mL
CONCENTRATION UV4 in human plasma (Cohort 7, nominal day 1, nominal hour 18, subject with all samples <LLOQ): <LLOQ (0.500) ng/mL
CONCENTRATION UV4 in human plasma (Cohort 7, nominal day 2, nominal hour 24, individual subjects): 58.7 ng/mL and 27.8 ng/mL and 38.9 ng/mL and 46.4 ng/mL and 45.6 ng/mL and 40.8 ng/mL
CONCENTRATION UV4 in human plasma (Cohort 7, nominal day 2, nominal hour 24, subject with all samples <LLOQ): <LLOQ (0.500) ng/mL
CONCENTRATION UV4 in human plasma (Cohort 7, nominal day 2, nominal hour 36, individual subjects): 17.4 ng/mL and 8.03 ng/mL and 10.9 ng/mL and 14.8 ng/mL and 12.7 ng/mL
CONCENTRATION UV4 in human plasma (Cohort 7, nominal day 2, nominal hour 36, subject with all samples <LLOQ): <LLOQ (0.500) ng/mL
CONCENTRATION UV4 in human plasma (Cohort 7, nominal day 3, nominal hour 48, individual subjects): 7.94 ng/mL and 3.58 ng/mL and 4.75 ng/mL and 6.57 ng/mL and 8.76 ng/mL and 6.60 ng/mL
CONCENTRATION UV4 in human plasma (Cohort 7, nominal day 3, nominal hour 48, subject with all samples <LLOQ): <LLOQ (0.500) ng/mL
CONCENTRATION UV4 in human plasma (Cohort 8, nominal day 1, nominal hour 0, subjects with all samples <LLOQ): <LLOQ (0.500) ng/mL
CONCENTRATION UV4 in human plasma (Cohort 8, nominal day 1, nominal hour 0.5, subjects with all samples <LLOQ): <LLOQ (0.500) ng/mL
CONCENTRATION UV4 in human plasma (Cohort 8, nominal day 1, nominal hour 1, subjects with all samples <LLOQ): <LLOQ (0.500) ng/mL
CONCENTRATION UV4 in human plasma (Cohort 8, nominal day 1, nominal hour 1.5, subjects with all samples <LLOQ): <LLOQ (0.500) ng/mL
CONCENTRATION UV4 in human plasma (Cohort 8, nominal day 1, nominal hour 2, subjects with all samples <LLOQ): <LLOQ (0.500) ng/mL
CONCENTRATION UV4 in human plasma (Cohort 8, nominal day 1, nominal hour 2.5, subjects with all samples <LLOQ): <LLOQ (0.500) ng/mL
CONCENTRATION UV4 in human plasma (Cohort 8, nominal day 1, nominal hour 3, subjects with all samples <LLOQ): <LLOQ (0.500) ng/mL
CONCENTRATION UV4 in human plasma (Cohort 8, nominal day 1, nominal hour 4, subjects with all samples <LLOQ): <LLOQ (0.500) ng/mL
CONCENTRATION UV4 in human plasma (Cohort 8, nominal day 1, nominal hour 6, subjects with all samples <LLOQ): <LLOQ (0.500) ng/mL
CONCENTRATION UV4 in human plasma (Cohort 8, nominal day 1, nominal hour 9, subjects with all samples <LLOQ): <LLOQ (0.500) ng/mL
CONCENTRATION UV4 in human plasma (Cohort 8, nominal day 1, nominal hour 12, subjects with all samples <LLOQ): <LLOQ (0.500) ng/mL
CONCENTRATION UV4 in human plasma (Cohort 8, nominal day 1, nominal hour 18, subjects with all samples <LLOQ): <LLOQ (0.500) ng/mL
CONCENTRATION UV4 (Cohort 1, nominal day 1, nominal hour 0): <LLOQ (0.500) ng/mL
CONCENTRATION UV4 (Cohort 1, nominal day 3, nominal hour 48): <LLOQ (0.500) ng/mL
